Columns and labels:
[1] = Oral administration of Compound PC-1 and BBSI inhibitor to rats; assay type: in vivo; conditions: PC-1 20 mg/kg
[2] = Oral administration of Compound PC-1 and SBTI in the presence of ovalbumin to rats (hydromorphone in plasma); assay type: in vivo; conditions: for Maximum concentration (Cmax) of hydromorphone in rat plasma: PC-1 20 mg/kg
[3] = Oral administration of Compound PC-1 and SBTI trypsin inhibitor to rats (hydromorphone in blood); conditions: for Maximum concentration (Cmax) of hydromorphone in rat blood: PC-1 20 mg/kg
[4] = Oral administration of Compound PC-3 and Compound 101 trypsin inhibitor to rats; assay type: in vivo
[5] = Oral administration of Compound PC-4 and Compound 101 trypsin inhibitor to rats; assay type: in vivo
[6] = Oral administration of Compound PC-2 and SBTI trypsin inhibitor to rats; assay type: in vivo; conditions: for Cmax of hydromorphone in rat plasma: PC-2 20 mg/kg
[7] = Oral administration of Compound PC-3 and SBTI trypsin inhibitor to rats; assay type: in vivo; conditions: for Cmax of hydromorphone in rat plasma / Tmax of hydromorphone in rat plasma: PC-3 20 mg/kg
[8] = biological target: T1, trypsin from bovine pancreas (Bos taurus, UniProt P00760); test: In vitro trypsin conversion of prodrugs to hydromorphone and inhibition by trypsin inhibitor
T1 sequence (P00760 24-246): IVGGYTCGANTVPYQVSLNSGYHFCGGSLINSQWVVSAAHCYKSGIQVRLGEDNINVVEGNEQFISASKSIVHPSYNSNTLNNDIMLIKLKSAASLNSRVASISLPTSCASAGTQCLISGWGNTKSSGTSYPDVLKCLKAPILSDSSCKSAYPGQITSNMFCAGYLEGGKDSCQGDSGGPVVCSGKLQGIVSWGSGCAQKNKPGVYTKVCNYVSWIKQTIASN

[9] = Oral administration of Compound PC-4 and SBTI trypsin inhibitor to rats; assay type: in vivo; conditions: for Cmax of HM in rat plasma / Tmax of HM in rat plasma: PC-4 20 mg/kg
trypsin = biological target: T2, trypsin (Bos taurus, UniProt P00760); test: In vitro IC50 of trypsin inhibitors, modified trypsin assay; assay type: biochemical; conditions: trypsin inhibition
T2 sequence (P00760 24-246): T1 sequence (P00760 24-246)

[10] = PC-3 20 mg/kg, Compound 101 10 mg/kg
[11] = PC-4 20 mg/kg, Compound 101 10 mg/kg

CC(=O)NC(CCCNC(=N)N)C(=O)NCCN(C)C(=O)Oc1ccc2c3c1OC1C(=O)CCC4C(C2)N(C)CCC314 (stereo not shown) [Compound PC-1, hydromorphone 3-(N-methyl-N-(2-N′-acetylarginylamino)) ethylcarbamate]
Maximum concentration (Cmax) of hydromorphone in rat blood ([1]; BBSI 0 mg/kg, n = 4): 16.5 ± 5.3 ng/mL
Maximum concentration (Cmax) of hydromorphone in rat blood ([1]; BBSI 100 mg/kg, n = 3 (3 of the 4 rats)): 10.6 ± 5.9 ng/mL
Maximum concentration (Cmax) of hydromorphone in rat blood ([1]; BBSI 100 mg/kg, n = 4): 18.7 ± 17.0 ng/mL
Cmax of hydromorphone of the rat not included in n = 3 analysis ([1]; BBSI 100 mg/kg, one rat): 43 ng/mL
range of Cmax of hydromorphone of the other rats ([1]; rat PO, BBSI 100 mg/kg, the 3 rats of the n = 3 analysis): 6.8 to 17 ng/mL
Maximum concentration (Cmax) of hydromorphone in rat plasma ([2]; OVA 0 mg/kg, SBTI 0 mg/kg): 13.3 ± 3.7 ng/mL
Maximum concentration (Cmax) of hydromorphone in rat plasma ([2]; OVA 20 mg/kg, SBTI 0 mg/kg): 11.0 ± 5.4 ng/mL
Maximum concentration (Cmax) of hydromorphone in rat plasma ([2]; OVA 100 mg/kg, SBTI 0 mg/kg): 9.7 ± 3.1 ng/mL
Maximum concentration (Cmax) of hydromorphone in rat plasma ([2]; OVA 500 mg/kg, SBTI 0 mg/kg): 11.6 ± 2.5 ng/mL
Maximum concentration (Cmax) of hydromorphone in rat plasma ([2]; OVA 500 mg/kg, SBTI 500 mg/kg): 1.9 ± 0.9 ng/mL
Maximum concentration (Cmax) of hydromorphone in rat plasma ([2]; OVA 1000 mg/kg, SBTI 0 mg/kg): 10.3 ± 3.5 ng/mL
plasma Tmax of hydromorphone ([2]; rat PO, PC-1 20 mg/kg alone): 2.3 h
plasma Tmax of hydromorphone ([2]; rat PO, PC-1 20 mg/kg with 500 mg/kg OVA and 500 mg/kg SBTI): 8.0 h
Maximum concentration (Cmax) of hydromorphone in rat blood ([3]; SBTI 0 mg/kg): 16.5 ± 5.3 ng/mL
Maximum concentration (Cmax) of hydromorphone in rat blood ([3]; SBTI 10 mg/kg): 8.9 ± 1.8 ng/mL
Maximum concentration (Cmax) of hydromorphone in rat blood ([3]; SBTI 100 mg/kg): 6.0 ± 4.0 ng/mL
Maximum concentration (Cmax) of hydromorphone in rat blood ([3]; SBTI 500 mg/kg, lower limit of quantitation 5 ng/mL): <5 ng/mL
Maximum concentration (Cmax) of hydromorphone in rat blood ([3]; SBTI 1000 mg/kg, lower limit of quantitation 5 ng/mL): <5 ng/mL

CCOC(=O)N1CCN(C(=O)[C@H](CCCNC(=N)N)NS(=O)(=O)c2ccc3ccccc3c2)CC1 [Compound 101, (S)-ethyl 4-(5-guanidino-2-(naphthalene-2-sulfonamido)pentanoyl)piperazine-1-carboxylate]
effect of Compound 101 on release of hydromorphone from Compound PC-3 ([4]; rat PO, PC-3 20 mg/kg with Compound 101 10 mg/kg): attenuates Compound PC-3's ability to release hydromorphone, both with respect to suppressing Cmax and delaying Tmax
effect of Compound 101 on release of hydromorphone from Compound PC-4 ([5]; rat PO, PC-4 20 mg/kg with Compound 101 10 mg/kg): attenuates Compound PC-4's ability to release hydromorphone, both with respect to suppressing Cmax and delaying Tmax

CN(CCNC(=O)[C@@H](N)CCCNC(=N)N)C(=O)Oc1ccc2c3c1OC1C(=O)CCC4C(C2)N(C)CCC314 (stereo partly drawn) [Compound PC-2, [2-((S)-2-amino-5-guanidino-pentanoylamino)-ethyl]-methyl-carbamic acid hydromorphyl ester]
Cmax of hydromorphone in rat plasma ([6]; SBTI 0 mg/kg): 14.2 ± 2.6 ng/mL
Cmax of hydromorphone in rat plasma ([6]; SBTI 500 mg/kg): 7.3 ± 3.5 ng/mL

CC(=O)N[C@@H](CCCCN)C(=O)NCCN(C)C(=O)Oc1ccc2c3c1OC1C(=O)CCC4C(C2)N(C)CCC314 (stereo partly drawn) [Compound PC-3, (S)-2-Acetylamino-6-amino-hexanoic acid (2-methylamino-ethyl)-amide hydromorphone ester]
Cmax of HM in rat plasma [4, 10]: 3.8 ± 2.9 ng/mL
Tmax of HM in rat plasma [4, 10]: 3.5 h
Cmax of hydromorphone in rat plasma ([7]; SBTI 500 mg/kg): 2.3 ± 1.7 ng/mL
Tmax of hydromorphone in rat plasma ([7]; SBTI 500 mg/kg): 7.3 h
Cmax of hydromorphone in rat plasma ([7]; no inhibitor): 9.0 ± 3.1 ng/mL
Tmax of hydromorphone in rat plasma ([7]; no inhibitor): 2.3 h

CCN(CCNC(=O)[C@H](CCCNC(=N)N)NC(C)=O)C(=O)Oc1ccc2c3c1OC1C(=O)CCC4C(C2)N(C)CCC314 (stereo partly shown) [Compound PC-4]
Rate of HM formation, umols/h/umol trypsin ([8]; no trypsin inhibitor, (n = 1)): 322 umols/h/umol trypsin
Rate of HM formation, umols/h/umol trypsin Average ± sd ([8]; with trypsin inhibitor 3,089 uM Compound 109): 3.27 ± 1.87 umols/h/umol trypsin
Cmax of HM in rat plasma ([9]; SBTI 500 mg/kg): 7.5 ± 2.1 ng/mL
Tmax of HM in rat plasma ([9]; SBTI 500 mg/kg): 6.5 h
Cmax of HM in rat plasma ([9]; no inhibitor, 7 rats): 7.7 ± 2.3 ng/mL
Tmax of HM in rat plasma ([9]; no inhibitor, 7 rats): 2.3 h
Cmax of HM in rat plasma [5, 11]: 4.8 ± 1.4 ng/mL
Tmax of HM in rat plasma [5, 11]: 6.0 h

B1: SBTI: trypsin inhibitor from Glycine max (soybean) (Catalog No. 93620, ˜10,000 units per mg, Sigma-Aldrich) (protein, UniProt P01070 25-205, looked up)
Trypsin inhibitor A: DFVLDNEGNPLENGGTYYILSDITAFGGIRAAPTGNERCPLTVVQSRNELDKGIGTIISSPYRIRFIAEGHPLSLKFDSFAVIMLCVGIPTEWSVVEDLPEGPAVKIGENKDAMDGWFRLERVSDDEFNNYKLVFCPQQAEDDKCGDIGISIDHDDGTRRLVVSKNKPLVVQFQKLDKESL
effect of SBTI on release of hydromorphone from Compound PC-4 ([9]; rat PO, PC-4 20 mg/kg with SBTI 500 mg/kg): attenuates Compound PC-4's ability to release hydromorphone, at least with respect to delaying Tmax
effect of SBTI on release of hydromorphone from Compound PC-3 ([7]; rat PO, PC-3 20 mg/kg with SBTI 500 mg/kg): attenuates Compound PC-3's ability to release hydromorphone, both with respect to suppressing Cmax and delaying Tmax
effect of SBTI on release of hydromorphone from Compound PC-1 ([3]; rat PO, PC-1 20 mg/kg with SBTI 10 to 1000 mg/kg): attenuates Compound PC-1's ability to release hydromorphone in a dose-dependent manner
IC50 (trypsin; Table 7): 270 nM
IC50 (trypsin; Table 20): 270 nM
effect of SBTI on release of hydromorphone from Compound PC-2 ([6]; rat PO, PC-2 20 mg/kg with SBTI 500 mg/kg): attenuates Compound PC-2's ability to release hydromorphone, both with respect to suppressing Cmax and delaying Tmax

B2: ovalbumin: Albumin from chicken egg white (Catalog No. A7641, Sigma-Aldrich), used as a non-trypsin inhibitor protein control (protein, UniProt P01012 2-386, looked up)
Ovalbumin: GSIGAASMEFCFDVFKELKVHHANENIFYCPIAIMSALAMVYLGAKDSTRTQINKVVRFDKLPGFGDSIEAQCGTSVNVHSSLRDILNQITKPNDVYSFSLASRLYAEERYPILPEYLQCVKELYRGGLEPINFQTAADQARELINSWVESQTNGIIRNVLQPSSVDSQTAMVLVNAIVFKGLWEKAFKDEDTQAMPFRVTEQESKPVQMMYQIGLFRVASMASEKMKILELPFASGTMSMLVLLPDEVSGLEQLESIINFEKLTEWTSSNVMEERKIKVYLPRMKMEEKYNLTSVLMAMGITDVFSSSANLSGISSAESLKISQAVHAAHAEINEAGREVVGSAEAGVDAASVSEEFRADHPFLFCIKHIATNAVLFFGRCVSP
effect of ovalbumin on release of hydromorphone from Compound PC-1 ([2]; rat PO, PC-1 20 mg/kg with OVA 20 to 1000 mg/kg): does not significantly affect Compound PC-1's ability to release hydromorphone

— US20110262359A1, “COMPOSITIONS COMPRISING ENZYME-CLEAVABLE PRODRUGS OF ACTIVE AGENTS AND INHIBITORS THEREOF” (priority 2010, published 2011)
